Measured values taken from patent US20260234164A1, “BIPHENYL COMPOUND AS IMMUNOMODULATOR, PREPARATION METHOD THEREFOR AND USE THEREOF” (SHENZHEN CHIPSCREEN BIOSCIENCES CO., LTD., priority 2021, published 2026).

Assays:
[1] = Tumor tissue distribution assay in MC38-PD-L1 tumor-bearing mice; type: in vivo, B-hPD-1/hPD-L1 humanized mice; settings: 50 mg/kg oral once/day; for concentration at 4 h / concentration at 24 h: female, B-hPD-1/hPD-L1 humanized, mouse, tumor tissue
Text: 16 B-hPD-1/hPD-L1 humanized female mice, aged 6-8 weeks were purchased from Biocytogen Jiangsu Gene Biotechnology Co., Ltd. After 1 week of adaptation, the mice were subcutaneously inoculated with MC38-PD-L1 cells at 2×10^6 cells/site. After the tumor grew to about […], the mice were divided into 4 groups, 4 mice in each group. The test compounds were formulated in a vehicle containing 5% DMSO, 60% PEG400 and 35% purified water, including I-1 and 3 control molecules Example 17, Compound 14 (INCB086550), and Example 180. The compounds were orally administered at 50 mg/kg, once/day. The blood and tumor tissue were collected 4 h and 24 h after administration on the 18th day. A certain amount of tissue was weighed, and added with phosphate-buffered saline (PBS) solution for homogenization. After the sample was processed, it was analyzed by LC-MS/MS to determine the concentration of the compound in plasma and tissue.

[2] = Pharmacokinetic assay after repeated oral administration; type: in vivo, B-hPD-1/hPD-L1 mice; settings: female, B-hPD-1/hPD-L1, mouse; plasma, 50 mg/kg oral once a day, after administration on the 18th day
Experimental: Twenty-four female B-hPD-1/hPD-L1 mice aged 6-8 weeks were purchased from Biocytogen Jiangsu Gene Biotechnology Co., Ltd. The mice were randomly divided into 4 groups, 6 mice in each group. The test compounds were prepared in a vehicle containing 5% DMSO, 60% PEG400 and 35% purified water, including I-1 and 3 control molecules Example 17, Compound 14 (INCB086550), and Example 180. The compounds were administered orally at 50 mg/kg, once a day. The blood was collected alternately through the fundus venous plexus after the administration on the 18th day. The blood collection time points were 15 min, 30 min, 1 h, 2 h, 4 h, 8h, 24 h and 32h. About 0.1 mL of blood was collected in a centrifuge tube (anticoagulated with sodium heparin), and centrifuged at 5000 rpm for 5 min. Then the plasma was separated, and frozen at −20° C. for later detection. After the plasma samples were processed, the concentration of the compounds in the plasma was determined by liquid chromatography-mass spectrometry (LC-MS/MS). The pharmacokinetic parameters were calculated using Phoenix WinNonlin 7.0.

[3] = system: PD-1/PD-L1-mediated T cell activation inhibitory signal; assay: CHO-PD-L1-CD3L / Jurkat-PD-1-NFAT co-culture luciferase reporter assay; type: cell-based; settings: Homo sapiens, co-culture 6 h, read-out: EC50 blocking PD-1/PD-L1-mediated T cell activation inhibitory signal
Experimental: In order to detect the effect of the interaction between PD-1 and PD-L1 on T cell activation signals in the immune response, CHO-PD-L1-CD3L cells stably expressing human PD-L1 molecules and anti-CD3 single-chain antibody (ScFv) and Jurkat-PD-1-NFAT cells stably expressing human PD-1 molecule and NFAT reporter gene were constructed. When the two kinds of cells were co-incubated, the binding of anti-CD3ScFv on the surface of CHO cells and the membrane CD3 molecules of Jurkat cells would transmit an activation signal to Jurkat cells, but simultaneously, the binding of PD-L1 on the surface of CHO cells and PD-1 molecules on the surface of Jurkat cells would transmit an inhibitory signal inward to prevent expression of the luciferase reporter gene. When immune checkpoint antibodies or small molecule inhibitors were added, the binding of PD-1 and PD-L1 was blocked, the NFAT pathway activated by T cell activation signal mediated by cross-linking of CD3ScFv antibody and CD3 was no longer affected by the inhibitory signal, and the downstream luciferase reporter gene started to be expressed. A chemiluminescent signal proportional to reporter gene activation was detected by adding a catalytic substrate.
CHO-PD-L1-CD3L cells expressing human PD-L1 molecule and anti-CD3 single-chain antibody (ScFv) and Jurkat-PD-1-NFAT cells stably expressing human PD-1 molecule and NFAT reporter gene were independently constructed and provided by Dr. Chen Bo (KeyMed Bioscience (Chengdu) Co., Ltd.). Puromycin (Cat #540411) and Hygromycin B (Cat #V900372) for stable culture of transfected cells were purchased from Sigma, PMA (Cat #P1585) was purchased from Sigma, anti-human PD-L1 antibody (Cat #GMP-A066) was purchased from Novoprotein Company. Luciferase substrate solution (Cat #E6485) and luciferase-specific cell lysis solution 5× (Cat #E1531) were purchased from Promega. Fluorescence detection instrument Tecan (Spark 10M) was purchased from Switzerland Tecan Company.
(1) The day before the experiment, 100 μL of CHO-PD-L1-CD3L cells were inoculated in each well of a 96-well cell culture plate (about 4×10^4 cells/well) with a medium of DMEM/F12 containing 10% FBS, 8 μg/mL puromycin and 200 μg/mL hygromycin B, and cultured overnight at 37° C.
(2) The test compounds were diluted with 0.1% PBST into different concentration gradients, added into 96-well plates, and pre-incubated for 30 min. Jurkat-PD-1-NFAT cell count was adjusted to 2×10^5 cells/mL with the RPMI 1640 complete medium containing 10% FBS, […]8 μg/mL puromycin and 200 μg/mL hygromycin B. 100 ng/mL PMA (the stock solution was prepared with DMSO to a concentration of 10 mg/mL) was added to amplify T cell activation signal. 100 μL of the above Jurkat-PD-1-NFAT cells was added to each well of the 96-well plate for co-culture.
(3) When detecting the reaction, a control group was provided, including a solvent control without adding test compounds and a positive control with addition of anti-human PD-1 antibody as the experimental system. All detections were performed with duplicates.
(4) After continuous incubation at 37° C. for 6 h, 40 μL of 5× cell lysate was directly added, and mixed well. The plate was placed at room temperature for 10 min to completely lyse the cells. 50 μL of the lysed cell solution was transferred to a fluorescence detection plate, and added with 30 μL of luciferase substrate solution. The chemiluminescence detection program on the fluorescence detector was immediately selected for detection.
(5) The inhibition rate of T cell activation signal at the cellular level of the test compounds was calculated as follows: Inhibition rate of T cell activation signal (%)=(the original value of chemiluminescence in the detection well−solvent control)/(the highest original value of chemiluminescence detected in the compound detection well−solvent control)×100%. […]

[4] = clinical studies; cited from earlier work
[5] = 4 h after administration on the 18th day
[6] = 24 h after administration on the 18th day

| Molecule | Ratio of I-1 to control molecule (tumor tissue concentration) [1, 5] | Ratio of I-1 to control molecule (tumor tissue concentration) [1, 6] | concentration at 4 h [1, 5] [ng/g] | concentration at 24 h [1, 6] [ng/g] | AUC(0-t) [2] [ng·h/mL] | MRT [2] [h] | half-life [2] [h] | EC50 [3] [nM] | T1/2 [4] [h] |
| --- | --- | --- | --- | --- | --- | --- | --- | --- | --- |
| Cc1c(Nc2nccc3cc(CN4CC[C@@H](O)C4)cnc23)cccc1-c1cccc(-c2nc3cc(CN4CC[C@@H](C(=O)O)C4)cc(C#N)c3o2)c1C [Compound 14 (INCB086550)] | 5.9 | 7.6 | 6600 | 3600 | 15800 | 5.1 | 3.9 | – | – |
| [2H]c1c([2H])c(NC(=O)c2nc3c(n2C)CCN(CCC24CCC(COC)(CC2)C4)C3)c(F)c(-c2c([2H])c([2H])c([2H])c(NC(=O)c3nc4c(n3C)CCN(CCC35CCC(C(=O)O)(CC3)C5)C4)c2Cl)c1[2H] [Compound I-15, 4-(2-(2-((2-chloro-2′-fluoro-3′-(5-(2-(4-(methoxymethyl)bicyclo[2.2.1]heptane-1-yl)ethyl)-1-methyl-4,5,6,7-tetrahydro-1H-imidazo[4,5-c]pyridine-2-carboxamido)-[1,1′-biphenyl]-3-yl-4,4′,5,5′,6,6′-d6)carbamoyl)-1-methyl-1,4,6,7-tetrahydro-5H-imidazo[4,5-c]pyridin-5-yl)ethyl)bi cyclo[2.2.1]heptane-1-carboxylic acid] | – | – | – | – | – | – | – | 18.9 | – |
| Cn1c(C(=O)Nc2cccc(-c3cccc(NC(=O)c4nc5c(n4C)CCN(CCC46CCC(C(=O)O)(CC4)C6)C5)c3Cl)c2Cl)nc2c1CCN(CCC13CCC(C(=O)O)(CC1)C3)C2 [Example 17] | 7.8 | 27.2 | 5000 | 1000 | 67400 | 5.8 | 4.2 | – | – |
| Cn1c(C(=O)Nc2cccc(-c3cccc(NC(=O)c4nc5c(n4C)CCN(CC46CCC(C(=O)O)(CC4)C6)C5)c3Cl)c2Cl)nc2c1CCN(CCO)C2 [Example 180] | 8.7 | 30.2 | 4500 | 900 | 33700 | 5.6 | 3.8 | – | – |
| atezolizumab: PD-1/PD-L1 antibody drug | – | – | – | – | – | – | – | – | 648 |
| nivolumab: PD-1/PD-L1 antibody drug | – | – | – | – | – | – | – | – | 605 |
| pembrolizumab: PD-1/PD-L1 antibody drug | – | – | – | – | – | – | – | – | 600 |
